In brackets after ≈: the same amount, converted by molar mass.
Key:
[1] = system: bacterial protein synthesis (aminoacylation/translation system); assay: aminoacylation/translation (A/T) assay; type: biochemical; details: A/T assay, Table 1; read-out: IC50
S. aureus = assay: Broth microdilution MIC testing; type: cell-based, Staphylococcus aureus; details: for MIC: Staphylococcus aureus, read-out: MIC S. aureus
E. coli tolC mutants = assay: Broth microdilution MIC testing; type: cell-based, Escherichia coli; details: for MIC: Escherichia coli, read-out: MIC E. coli tolC; for MIC E. coli tolC: E. coli tolC mutants
E. faecalis = assay: Broth microdilution MIC testing; type: cell-based, Enterococcus faecalis; details: for MIC: Enterococcus faecalis, read-out: MIC E. fae; for MIC E. fae: E. faecalis
M. catarrhalis = assay: Broth microdilution MIC testing; type: cell-based, Moraxella catarrhalis; details: for MIC: Moraxella catarrhalis
H. influenzae = assay: Broth microdilution MIC testing; type: cell-based, Haemophilus influenzae; details: for MIC: Haemophilus influenzae, read-out: MIC H. flu; for MIC H. flu: H. influenzae
S. pneumoniae = assay: Broth microdilution MIC testing; type: cell-based, Streptococcus pneumoniae; details: for MIC: Streptococcus pneumoniae, read-out: MIC S. pneumo; for MIC S. pneumo: S. pneumoniae
[2] = system: E. coli modified with PMBN; assay: Broth microdilution MIC testing; type: cell-based, Escherichia coli; details: for MIC: Escherichia coli, read-out: MIC E. coli +PMBP; for MIC E. coli +PMBP: E. coli modified with PMBN

Structure (SMILES)	IC50 [1]	MIC (S. aureus)	MIC (E. coli tolC mutants)	MIC (E. faecalis)	MIC (M. catarrhalis)	MIC (H. influenzae)	MIC (S. pneumoniae)	MIC [2]	MIC E. fae (E. faecalis)	MIC M. cat (M. catarrhalis)	MIC H. flu (H. influenzae)	MIC S. pneumo (S. pneumoniae)	MIC S. aureus (S. aureus)	MIC E. coli tolC (E. coli tolC mutants)	MIC E. coli +PMBP [2]
Oc1nc(-c2cccnc2)nc2c1CN(Cc1cccc(F)c1)CC2 [Compound 321376]	> 300000 nM	> 128 µg/mL	> 128 µg/mL	–	–	–	–	–	–	–	–	–	–	–	–
Oc1nc(-c2ccncc2)nc2c1CN(Cc1cccc(F)c1)CC2 [Compound 321386]	> 300000 nM	> 128 µg/mL	> 128 µg/mL	> 128 µg/mL	> 128 µg/mL	> 128 µg/mL	> 128 µg/mL	> 128 µg/mL	–	–	–	–	–	–	–
COc1cccc(CN2CCc3nc(-c4ccncc4)nc(O)c3C2)c1 [Compound 321388]	> 300000 nM	> 128 µg/mL	> 128 µg/mL	> 128 µg/mL	> 128 µg/mL	> 128 µg/mL	> 128 µg/mL	> 128 µg/mL	–	–	–	–	–	–	–
Oc1nc(-c2ccccn2)nc2c1CN(Cc1ccc(F)cc1)CC2 [Compound 321521]	2400 nM	128 µg/mL (≈ 381 µM)	16 µg/mL (≈ 47.6 µM)	16 µg/mL (≈ 47.6 µM)	0.5 µg/mL (≈ 1.49 µM)	4 µg/mL (≈ 11.9 µM)	16 µg/mL (≈ 47.6 µM)	64 µg/mL (≈ 190 µM)	–	–	–	–	–	–	–
Oc1ccccc1CN1CCc2nc(-c3ccccn3)nc(O)c2C1 [Compound 321522]	2600 nM	128 µg/mL (≈ 383 µM)	32 µg/mL (≈ 95.7 µM)	16 µg/mL (≈ 47.8 µM)	1 µg/mL (≈ 2.99 µM)	2 µg/mL (≈ 5.98 µM)	16 µg/mL (≈ 47.8 µM)	64 µg/mL (≈ 191 µM)	–	–	–	–	–	–	–
Oc1nc(-c2ccccn2)nc2c1CN(Cc1ccccc1)CC2 [Compound 321524]	2000 nM	128 µg/mL (≈ 402 µM)	16 µg/mL (≈ 50.3 µM)	16 µg/mL (≈ 50.3 µM)	1 µg/mL (≈ 3.14 µM)	4 µg/mL (≈ 12.6 µM)	16 µg/mL (≈ 50.3 µM)	64 µg/mL (≈ 201 µM)	–	–	–	–	–	–	–
COc1ccccc1CN1CCc2nc(-c3ccccn3)nc(O)c2C1 [Compound 321527]	1800 nM	> 128 µg/mL	64 µg/mL (≈ 184 µM)	64 µg/mL (≈ 184 µM)	2 µg/mL (≈ 5.74 µM)	16 µg/mL (≈ 45.9 µM)	32 µg/mL (≈ 91.8 µM)	> 128 µg/mL	–	–	–	–	–	–	–
COc1ccc(CN2CCc3nc(-c4ccccn4)nc(O)c3C2)cc1 [Compound 321529]	2600 nM	> 128 µg/mL	32 µg/mL (≈ 91.8 µM)	128 µg/mL (≈ 367 µM)	2 µg/mL (≈ 5.74 µM)	8 µg/mL (≈ 23 µM)	32 µg/mL (≈ 91.8 µM)	128 µg/mL (≈ 367 µM)	–	–	–	–	–	–	–
COc1ccc(OC)c(CN2CCc3nc(-c4ccccn4)[nH]c(=O)c3C2)c1 [Compound 323191]	> 300000 nM	–	–	–	–	–	–	–	128 µg/mL (≈ 338 µM)	4 µg/mL (≈ 10.6 µM)	32 µg/mL (≈ 84.6 µM)	32 µg/mL (≈ 84.6 µM)	> 128 µg/mL	128 µg/mL (≈ 338 µM)	64 µg/mL (≈ 169 µM)
O=c1[nH]c(-c2ccccn2)nc2c1CN(Cc1ccccc1OCc1ccccn1)CC2 [Compound 323192]	> 300000 nM	–	–	–	–	–	–	–	128 µg/mL (≈ 301 µM)	4 µg/mL (≈ 9.4 µM)	64 µg/mL (≈ 150 µM)	32 µg/mL (≈ 75.2 µM)	> 128 µg/mL	128 µg/mL (≈ 301 µM)	64 µg/mL (≈ 150 µM)
C=CCOc1ccccc1CN1CCc2nc(-c3ccccn3)[nH]c(=O)c2C1 [Compound 323194]	3400 nM	–	–	–	–	–	–	–	64 µg/mL (≈ 171 µM)	1 µg/mL (≈ 2.67 µM)	8 µg/mL (≈ 21.4 µM)	8 µg/mL (≈ 21.4 µM)	64 µg/mL (≈ 171 µM)	16 µg/mL (≈ 42.7 µM)	16 µg/mL (≈ 42.7 µM)
O=c1[nH]c(-c2ccccn2)nc2c1CN(Cc1ccccc1N1CCCC1)CC2 [Compound 323195]	1500 nM	–	–	–	–	–	–	–	64 µg/mL (≈ 165 µM)	2 µg/mL (≈ 5.16 µM)	16 µg/mL (≈ 41.3 µM)	32 µg/mL (≈ 82.6 µM)	64 µg/mL (≈ 165 µM)	32 µg/mL (≈ 82.6 µM)	16 µg/mL (≈ 41.3 µM)
O=c1[nH]c(-c2ccccn2)nc2c1CN(Cc1cccc(O)c1O)CC2 [Compound 323196]	1600 nM	–	–	–	–	–	–	–	32 µg/mL (≈ 91.3 µM)	128 µg/mL (≈ 365 µM)	> 128 µg/mL	> 128 µg/mL	> 128 µg/mL	> 128 µg/mL	> 128 µg/mL
COc1cccc(CN2CCc3nc(-c4ccccn4)[nH]c(=O)c3C2)c1O [Compound 323197]	4400 nM	–	–	–	–	–	–	–	> 128 µg/mL	16 µg/mL (≈ 43.9 µM)	32 µg/mL (≈ 87.8 µM)	128 µg/mL (≈ 351 µM)	> 128 µg/mL	> 128 µg/mL	> 128 µg/mL
O=c1[nH]c(-c2ccccn2)nc2c1CN(Cc1c(F)cccc1F)CC2 [Compound 323198]	2700 nM	–	–	–	–	–	–	–	> 128 µg/mL	1 µg/mL (≈ 2.82 µM)	8 µg/mL (≈ 22.6 µM)	16 µg/mL (≈ 45.2 µM)	> 128 µg/mL	32 µg/mL (≈ 90.3 µM)	64 µg/mL (≈ 181 µM)
CCOc1cc2c(cc1CN1CCc3nc(-c4ccccn4)[nH]c(=O)c3C1)OCO2 [Compound 323199]	1100 nM	–	–	–	–	–	–	–	128 µg/mL (≈ 315 µM)	1 µg/mL (≈ 2.46 µM)	16 µg/mL (≈ 39.4 µM)	16 µg/mL (≈ 39.4 µM)	128 µg/mL (≈ 315 µM)	32 µg/mL (≈ 78.7 µM)	32 µg/mL (≈ 78.7 µM)
COc1ccc(CN2CCc3nc(-c4ccccn4)[nH]c(=O)c3C2)c(C)c1C [Compound 323202]	4300 nM	–	–	–	–	–	–	–	32 µg/mL (≈ 85 µM)	0.25 µg/mL (≈ 0.664 µM)	4 µg/mL (≈ 10.6 µM)	4 µg/mL (≈ 10.6 µM)	16 µg/mL (≈ 42.5 µM)	8 µg/mL (≈ 21.3 µM)	32 µg/mL (≈ 85 µM)
COc1cc(Cl)cc(CN2CCc3nc(-c4ccccn4)[nH]c(=O)c3C2)c1OC [Compound 323203]	2000 nM	–	–	–	–	–	–	–	64 µg/mL (≈ 155 µM)	1 µg/mL (≈ 2.42 µM)	8 µg/mL (≈ 19.4 µM)	4 µg/mL (≈ 9.69 µM)	16 µg/mL (≈ 38.8 µM)	8 µg/mL (≈ 19.4 µM)	16 µg/mL (≈ 38.8 µM)
Cc1cc(CN2CCc3nc(-c4ccccn4)[nH]c(=O)c3C2)cc(C)c1O [Compound 323204]	2100 nM	–	–	–	–	–	–	–	> 128 µg/mL	64 µg/mL (≈ 177 µM)	32 µg/mL (≈ 88.3 µM)	128 µg/mL (≈ 353 µM)	> 128 µg/mL	> 128 µg/mL	> 128 µg/mL
COc1cc(CN2CCc3nc(-c4ccccn4)[nH]c(=O)c3C2)cc2c1OCO2 [Compound 323205]	> 300000 nM	–	–	–	–	–	–	–	128 µg/mL (≈ 326 µM)	4 µg/mL (≈ 10.2 µM)	16 µg/mL (≈ 40.8 µM)	32 µg/mL (≈ 81.5 µM)	> 128 µg/mL	64 µg/mL (≈ 163 µM)	64 µg/mL (≈ 163 µM)
CN(C)Cc1cc(CN2CCc3nc(-c4ccccn4)[nH]c(=O)c3C2)ccc1O [Compound 323206]	> 300000 nM	–	–	–	–	–	–	–	> 128 µg/mL	> 128 µg/mL	> 128 µg/mL	> 128 µg/mL	> 128 µg/mL	> 128 µg/mL	> 128 µg/mL
Cc1cc2c(cc1CN1CCc3nc(-c4ccccn4)[nH]c(=O)c3C1)OCO2 [Compound 323207]	> 300000 nM	–	–	–	–	–	–	–	> 128 µg/mL	> 128 µg/mL	> 128 µg/mL	> 128 µg/mL	> 128 µg/mL	> 128 µg/mL	> 128 µg/mL
CCOCc1cc(CN2CCc3nc(-c4ccccn4)[nH]c(=O)c3C2)ccc1OC [Compound 323208]	2700 nM	–	–	–	–	–	–	–	> 128 µg/mL	4 µg/mL (≈ 9.84 µM)	64 µg/mL (≈ 157 µM)	32 µg/mL (≈ 78.7 µM)	> 128 µg/mL	64 µg/mL (≈ 157 µM)	64 µg/mL (≈ 157 µM)
COc1cc(C)c(CN2CCc3nc(-c4ccccn4)[nH]c(=O)c3C2)cc1OC [Compound 323209]	1500 nM	–	–	–	–	–	–	–	> 128 µg/mL	4 µg/mL (≈ 10.2 µM)	64 µg/mL (≈ 163 µM)	32 µg/mL (≈ 81.5 µM)	> 128 µg/mL	64 µg/mL (≈ 163 µM)	64 µg/mL (≈ 163 µM)
O=C(COc1ccc(CN2CCc3nc(-c4ccccn4)[nH]c(=O)c3C2)cc1)N1CCCC1 [Compound 323210]	3200 nM	–	–	–	–	–	–	–	> 128 µg/mL	> 128 µg/mL	> 128 µg/mL	> 128 µg/mL	> 128 µg/mL	> 128 µg/mL	> 128 µg/mL
O=C1CCCN1c1ccc(CN2CCc3nc(-c4ccccn4)[nH]c(=O)c3C2)cc1 [Compound 323211]	1600 nM	–	–	–	–	–	–	–	> 128 µg/mL	64 µg/mL (≈ 159 µM)	> 128 µg/mL	> 128 µg/mL	> 128 µg/mL	> 128 µg/mL	> 128 µg/mL
Cn1c(=O)n(C)c2cc(CN3CCc4nc(-c5ccccn5)[nH]c(=O)c4C3)ccc21 [Compound 323213]	2400 nM	–	–	–	–	–	–	–	> 128 µg/mL	> 128 µg/mL	> 128 µg/mL	> 128 µg/mL	> 128 µg/mL	> 128 µg/mL	> 128 µg/mL
